Measured values as given in the supplement of paper PMC10307832.

Key:
Assay in all cases: relative viability (nuclei count vs DMSO), 5 days (fraction); higher = more cells survive
[1] = system: NCI-H1355
In short: (§1)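 The day after seeding in 1536-well plates, lung cancer cell lines were treated by pin tool with a single drug, or with a fixed anchor-drug dose together with five library-drug doses (not always all listed) in √10 steps. After 5 days, a combined fix-and-stain solution (final 0.05% Triton X-100, 1% formaldehyde, 1 ug/ml Hoechst) was added. Nuclei counted on 4× images gave relative viability as treated counts over vehicle counts, reported as the median of duplicate plates.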

[2] = system: NCI-H1437
In short: as §1

[3] = system: NCI-H441
In short: as §1

[4] = system: LOU-NH91
In short: as §1

[5] = system: CAL-12T
In short: as §1

[6] = system: NCI-H2023
In short: as §1

[7] = system: NCI-H460
In short: as §1

[8] = system: HCC-44
In short: as §1

[9] = system: NCI-H358
In short: as §1

[10] = system: NCI-H1650
In short: as §1

[11] = system: NCI-H1651
In short: as §1

[12] = system: NCI-H1975
In short: as §1

[13] = system: NCI-H838
In short: as §1

[14] = system: NCI-H2342
In short: as §1

[15] = system: NCI-H1395
In short: as §1

[16] = system: LCLC-103H
In short: as §1

[17] = system: NCI-H2085
In short: as §1

[18] = system: NCI-H1755
In short: as §1

[19] = system: HCC-15
In short: as §1

[20] = system: HCC-366
In short: as §1

[21] = system: EKVX
In short: as §1

[22] = system: NCI-H1734
In short: as §1

[23] = system: BEN
In short: as §1

## CC(C)Oc1cc(Nc2nc(N[C@@H](C)c3ccc(F)cn3)ncc2Cl)n[nH]1 [AZ23] + CC(=O)Nc1cccc(-n2c(=O)n(C3CC3)c(=O)c3c(Nc4ccc(I)cc4F)n(C)c(=O)c(C)c32)c1 [Trametinib] (partner 0.02 µM)
[1]; first compound 0.01 µM
  relative viability: 0.359
[1]; first compound 0.03162 µM
  relative viability: 0.417
[1]; first compound 0.3162 µM
  relative viability: 0.353
[2]; first compound 0.01 µM
  relative viability: 0.503
[2]; first compound 0.03162 µM
  relative viability: 0.512
[2]; first compound 0.3162 µM
  relative viability: 0.651
[3]; first compound 0.01 µM
  relative viability: 0.504
[3]; first compound 0.03162 µM
  relative viability: 0.433
[3]; first compound 0.3162 µM
  relative viability: 0.509
[4]; first compound 0.01 µM
  relative viability: 0.784
[4]; first compound 0.03162 µM
  relative viability: 0.823
[4]; first compound 0.3162 µM
  relative viability: 0.784
[5]; first compound 0.03162 µM
  relative viability: 0.28
[5]; first compound 0.3162 µM
  relative viability: 0.368
[6]; first compound 0.03162 µM
  relative viability: 0.602
[6]; first compound 0.3162 µM
  relative viability: 0.48
[7]; first compound 0.01 µM
  relative viability: 0.119
[7]; first compound 0.03162 µM
  relative viability: 0.128
[7]; first compound 0.3162 µM
  relative viability: 0.166
[8]; first compound 0.01 µM
  relative viability: 1.1
[8]; first compound 0.03162 µM
  relative viability: 0.92
[8]; first compound 0.3162 µM
  relative viability: 1.05
[9]; first compound 0.01 µM
  relative viability: 0.116
[9]; first compound 0.03162 µM
  relative viability: 0.137
[9]; first compound 0.3162 µM
  relative viability: 0.124
[10]; first compound 0.01 µM
  relative viability: 0.546
[10]; first compound 0.03162 µM
  relative viability: 0.589
[10]; first compound 0.3162 µM
  relative viability: 0.659
[11]; first compound 0.01 µM
  relative viability: 0.829
[11]; first compound 0.03162 µM
  relative viability: 0.87
[11]; first compound 0.3162 µM
  relative viability: 0.854
[12]; first compound 0.01 µM
  relative viability: 0.387
[12]; first compound 0.03162 µM
  relative viability: 0.495
[12]; first compound 0.3162 µM
  relative viability: 0.302
[13]; first compound 0.01 µM
  relative viability: 0.615
[13]; first compound 0.03162 µM
  relative viability: 0.561
[13]; first compound 0.3162 µM
  relative viability: 0.456
[14]; first compound 0.01 µM
  relative viability: 0.752
[14]; first compound 0.03162 µM
  relative viability: 0.828
[14]; first compound 0.3162 µM
  relative viability: 0.72
[15]; first compound 0.03162 µM
  relative viability: 1.06
[15]; first compound 0.3162 µM
  relative viability: 1.06
[16]; first compound 0.01 µM
  relative viability: 0.741
[16]; first compound 0.03162 µM
  relative viability: 0.7
[16]; first compound 0.3162 µM
  relative viability: 0.655
[17]; first compound 0.01 µM
  relative viability: 0.477
[17]; first compound 0.03162 µM
  relative viability: 0.746
[17]; first compound 0.3162 µM
  relative viability: 0.538
[18]; first compound 0.01 µM
  relative viability: 0.828
[18]; first compound 0.03162 µM
  relative viability: 0.774
[18]; first compound 0.3162 µM
  relative viability: 0.708
[19]; first compound 0.01 µM
  relative viability: 0.382
[19]; first compound 0.03162 µM
  relative viability: 0.413
[19]; first compound 0.3162 µM
  relative viability: 0.243
[20]; first compound 0.01 µM
  relative viability: 0.334
[20]; first compound 0.03162 µM
  relative viability: 0.399
[20]; first compound 0.3162 µM
  relative viability: 0.33
[21]; first compound 0.01 µM
  relative viability: 0.346
[21]; first compound 0.03162 µM
  relative viability: 0.351
[21]; first compound 0.3162 µM
  relative viability: 0.332
[22]; first compound 0.01 µM
  relative viability: 0.733
[22]; first compound 0.03162 µM
  relative viability: 0.726
[22]; first compound 0.3162 µM
  relative viability: 0.436
[23]; first compound 0.01 µM
  relative viability: 0.909
[23]; first compound 0.03162 µM
  relative viability: 1.14
[23]; first compound 0.3162 µM
  relative viability: 1.09
